Test results published in patent US9174994B2, “Enhanced treatment regimens using mTor inhibitors” (INTELLIKINE LLC, priority 2011, dated 2015).

Test: Phase I clinical trial: treatment-emergent adverse events (patients, n (%)), dose limiting toxicity, MTD
Format: in vivo
Procedure: Safety, maximum tolerated dose (MTD), pharmacokinetics (PK) and preliminary antitumor activity were evaluated.
Pharmacodynamic (PD) endpoints were evaluated in surrogate (peripheral blood cells [PBCs], skin) and tumor tissues for the phosphorylation of TORC1-dependent markers (4EBP1/S6), and TORC2-dependent markers (AKT/PRAS40).

Compound: CC(C)n1nc(-c2ccc3oc(N)nc3c2)c2c(N)ncnc21 [compound A]
- Rash macular (6 mg/3 W, QDx3d QW (N = 3)): 0 (0%)
- Urinary tract infection (6 mg/3 W, QDx3d QW (N = 3)): 0 (0%)
- Vomiting (6 mg/3 W, QDx3d QW (N = 3)): 1 (33%)
- Asthenia (6 mg/3 W, QDx3d QW (N = 3), 2nd Asthenia line): 0 (0%)
- Anaemia (6 mg/day (N = 7)): 0 (0%)
- Asthenia (6 mg/day (N = 7)): 2 (29%)
- Blood creatinine increased (6 mg/day (N = 7)): 1 (14%)
- Coagulopathy (6 mg/day (N = 7)): 0 (0%)
- Confusional state (6 mg/day (N = 7)): 0 (0%)
- Cough (6 mg/day (N = 7)): 0 (0%)
- Decreased appetite (6 mg/day (N = 7)): 1 (14%)
- Dehydration (6 mg/day (N = 7)): 0 (0%)
- Diarrhoea (6 mg/day (N = 7)): 5 (71%)
- Dizziness (6 mg/day (N = 7)): 0 (0%)
- Dry mouth (6 mg/day (N = 7)): 0 (0%)
- Dry skin (6 mg/day (N = 7)): 0 (0%)
- Dysgeusia (6 mg/day (N = 7)): 1 (14%)
- Dyspepsia (6 mg/day (N = 7)): 0 (0%)
- Dyspnoea (6 mg/day (N = 7)): 0 (0%)
- Dyspnoea exertional (6 mg/day (N = 7)): 0 (0%)
- Eye infection (6 mg/day (N = 7)): 1 (14%)
- Fatigue (6 mg/day (N = 7)): 1 (14%)
- Gastritis (6 mg/day (N = 7)): 0 (0%)
- Gravitational oedema (6 mg/day (N = 7)): 0 (0%)
- Hypercholesterolaemia (6 mg/day (N = 7)): 3 (43%)
- Hyperglycaemia (6 mg/day (N = 7)): 7 (100%)
- Hypocalcaemia (6 mg/day (N = 7)): 0 (0%)
- Insomnia (6 mg/day (N = 7)): 1 (14%)
- Lymphopenia (6 mg/day (N = 7)): 0 (0%)
- Mucosal inflammation (6 mg/day (N = 7)): 2 (29%)
- Muscle spasms (6 mg/day (N = 7)): 1 (14%)
- Nausea (6 mg/day (N = 7)): 3 (43%)
- Orthostatic hypotension (6 mg/day (N = 7)): 0 (0%)
- Panniculitis (6 mg/day (N = 7)): 0 (0%)
- Patients Reporting at Least One Related TEAE (6 mg/day (N = 7)): 7 (100%)
- Polyuria (6 mg/day (N = 7)): 0 (0%)
- Pruritus (6 mg/day (N = 7)): 5 (71%)
- Rash (6 mg/day (N = 7)): 5 (71%)
- Skin discolouration (6 mg/day (N = 7)): 0 (0%)
- Skin exfoliation (6 mg/day (N = 7)): 0 (0%)
- Thrombocytopenia (6 mg/day (N = 7)): 0 (0%)
- Vomiting (6 mg/day (N = 7)): 3 (43%)
- Weight decreased (6 mg/day (N = 7)): 0 (0%)
- Diarrhoea (7 mg/5 W, QDx5d QW (N = 3)): 1 (33%)
- Patients Reporting at Least One Related TEAE (7 mg/5 W, QDx5d QW (N = 3)): 1 (33%)
- Rash (7 mg/5 W, QDx5d QW (N = 3)): 1 (33%)
- Urine tract infection (7 mg/5 W, QDx5d QW (N = 3)): 0 (0%)
- Vomiting (7 mg/5 W, QDx5d QW (N = 3)): 0 (0%)
- Nausea (7 mg/5 W, QDx5d QW (N = 3), 1st Nausea line): 0 (0%)
- Nausea (7 mg/5 W, QDx5d QW (N = 3), 2nd Nausea line): 1 (33%)
- Anaemia (7 mg/day (N = 8)): 2 (25%)
- Asthenia (7 mg/day (N = 8)): 4 (50%)
- Blood creatinine increased (7 mg/day (N = 8)): 4 (50%)
- Coagulopathy (7 mg/day (N = 8)): 1 (13%)
- Confusional state (7 mg/day (N = 8)): 1 (13%)
- Cough (7 mg/day (N = 8)): 1 (13%)
- Decreased appetite (7 mg/day (N = 8)): 3 (38%)
- Dehydration (7 mg/day (N = 8)): 2 (25%)
- Diarrhoea (7 mg/day (N = 8)): 3 (38%)
- Dizziness (7 mg/day (N = 8)): 1 (13%)
- Dry mouth (7 mg/day (N = 8)): 3 (38%)
- Dry skin (7 mg/day (N = 8)): 1 (13%)
- Dysgeusia (7 mg/day (N = 8)): 2 (25%)
- Dyspepsia (7 mg/day (N = 8)): 0 (0%)
- Dyspnoea (7 mg/day (N = 8)): 1 (13%)
- Dyspnoea exertional (7 mg/day (N = 8)): 0 (0%)
- Eye infection (7 mg/day (N = 8)): 0 (0%)
- Fatigue (7 mg/day (N = 8)): 2 (25%)
- Gastritis (7 mg/day (N = 8)): 1 (13%)
- Gravitational oedema (7 mg/day (N = 8)): 1 (13%)
- Hypercholesterolaemia (7 mg/day (N = 8)): 1 (13%)
- Hyperglycaemia (7 mg/day (N = 8)): 8 (100%)
- Hypocalcaemia (7 mg/day (N = 8)): 1 (13%)
- Insomnia (7 mg/day (N = 8)): 0 (0%)
- Lymphopenia (7 mg/day (N = 8)): 2 (25%)
- Mucosal inflammation (7 mg/day (N = 8)): 4 (50%)
- Muscle spasms (7 mg/day (N = 8)): 0 (0%)
- Nausea (7 mg/day (N = 8)): 3 (38%)
- Orthostatic hypotension (7 mg/day (N = 8)): 1 (13%)
- Panniculitis (7 mg/day (N = 8)): 1 (13%)
- Patients Reporting at Least One Related TEAE (7 mg/day (N = 8)): 8 (100%)
- Polyuria (7 mg/day (N = 8)): 0 (0%)
- Pruritus (7 mg/day (N = 8)): 2 (25%)
- Rash (7 mg/day (N = 8)): 4 (50%)
- Skin discolouration (7 mg/day (N = 8)): 1 (13%)
- Skin exfoliation (7 mg/day (N = 8)): 1 (13%)
- Thrombocytopenia (7 mg/day (N = 8)): 3 (38%)
- Vomiting (7 mg/day (N = 8)): 3 (38%)
- Weight decreased (7 mg/day (N = 8)): 1 (13%)
- ASTHENIA (7 mg/week (N = 3)): 0 (0%)
- ATHENIA (7 mg/week (N = 3)): 0 (0%)
- Alanine aminotransferase increased (7 mg/week (N = 3)): 1 (33%)
- Aspartate aminotransferase increased (7 mg/week (N = 3)): 1 (33%)
- Asthenia (7 mg/week (N = 3)): 0 (0%)
- Blood creatinine increased (7 mg/week (N = 3)): 0 (0%)
- Blood triglycerides increased (7 mg/week (N = 3)): 0 (0%)
- DIARRHEA (7 mg/week (N = 3)): 0 (0%)
- Decreased appetite (7 mg/week (N = 3)): 0 (0%)
- Diarrhoea (7 mg/week (N = 3)): 1 (33%)
- Dysgeusia (7 mg/week (N = 3)): 1 (33%)
- Dyspepsia (7 mg/week (N = 3)): 0 (0%)
- HYPERGLYCEMIA (7 mg/week (N = 3)): 0 (0%)
- Hyperglycaemia (7 mg/week (N = 3)): 1 (33%)
- Lymphopenia (7 mg/week (N = 3)): 1 (33%)
- Malaise (7 mg/week (N = 3)): 0 (0%)
- Mucosal inflammation (7 mg/week (N = 3)): 0 (0%)
- Muscle spasms (7 mg/week (N = 3)): 0 (0%)
- Nausea (7 mg/week (N = 3)): 1 (33%)
